# Test results: patent US20250171495A1, “MUTLI-TARGETED SERINE PROTEASE INHIBITORS FOR TREATMENT OF CANCER AND VIRAL INFECTION” (Washington University, priority 2023, published 2025)
# Tested on: VSV-SARS-CoV-2
# Test: microbe, parasite or virus in culture
# Details: Vesicular stomatitis virus, Calu-3, in Homo sapiens, read-out: VSV SARS CoV-2 Cell Entry EC50 (nM)
row,SMILES,EC50 [nM]
1,"CCC(C)[C@H](NC(C)=O)C(=O)N[C@@H](CCC(N)=O)C(=O)N[C@@H](Cc1ccccc1)C(=O)N[C@@H](CCCNC(=N)N)C(=O)c1nc2ccccc2s1 (stereo partly drawn) [MM3116, N-[(S)-1-[N-(S)-1-[(1,3-benzothiazol-2-yl)carbonyl]-4-guanidinobutylcarbamoyl]-2-phenylethyl](S)-2-[(2S)-2-acetylamino-3-methylvalerylamino]glutaramide]",3.6
2,"CC(=O)NCC(=O)N[C@@H](CCC(N)=O)C(=O)N[C@@H](Cc1ccccc1)C(=O)N[C@@H](CCCNC(=N)N)C(=O)c1nc2ccccc2s1 [MM3122, N-[(S)-1-[N-(S)-1-[(1,3-benzothiazol-2-yl)carbonyl]-4-guanidinobutylcarbamoyl]-2-phenylethyl](S)-2-[(acetylaminomethyl)carbonylamino]glutaramide]",0.43
3,"CC(=O)N1CCC[C@H]1C(=O)N[C@@H](CCC(N)=O)C(=O)N[C@@H](Cc1ccccc1)C(=O)N[C@@H](CCCNC(=N)N)C(=O)c1nc2ccccc2s1 [MM3123, N-[(S)-1-[N-(S)-1-[(1,3-benzothiazol-2-yl)carbonyl]-4-guanidinobutylcarbamoyl]-2-phenylethyl](S)-2-[(S)-1-acetyl-2-pyrrolidinylcarbonylamino] glutaramide]",0.86
4,"CC(=O)N[C@@H](CC(C)C)C(=O)N[C@@H](CCC(N)=O)C(=O)N[C@@H](Cc1ccccc1)C(=O)N[C@@H](CCCNC(=N)N)C(=O)c1nc2ccccc2s1 [MM3131, N-[(S)-1-[N-(S)-1-[(1,3-benzothiazol-2-yl)carbonyl]-4-guanidinobutylcarbamoyl]-2-phenylethyl](S)-2-[(S)-2-acetylamino-4-methylvalerylamino]glutaramide]",10.7
5,"CC(=O)N[C@@H](CCC(N)=O)C(=O)N[C@@H](Cc1ccccc1)C(=O)N[C@@H](CCCNC(=N)N)C(=O)c1nc2ccccc2s1 [MM3144, N-[(S)-1-[N-(S)-1-[(1,3-benzothiazol-2-yl)carbonyl]-4-guanidinobutylcarbamoyl]-2-phenylethyl](S)-2-acetylaminoglutaramide]",0.53
6,"CCC(C)[C@H](NC(C)=O)C(=O)N[C@@H](CCC(N)=O)C(=O)N[C@@H](CO)C(=O)N[C@@H](CCCNC(=N)N)C(=O)c1nc2ccccc2s1 (stereo partly drawn) [MM3177, N-[(S)-2-hydroxy-1-[N-(S)-1-[(1,3-benzothiazol-2-yl)carbonyl]-4-guanidinobutylcarbamoyl]ethyl](S)-2-[(2S)-2-acetylamino-3-methylvalerylamino]glutaramide]",36
7,"CCC(C)[C@H](NC(C)=O)C(=O)N[C@@H](CCC(N)=O)C(=O)N[C@@H](C)C(=O)N[C@@H](CCCNC(=N)N)C(=O)c1nc2ccccc2s1 (stereo partly drawn) [MM3178, N-[(S)-1-[N-(S)-1-[(1,3-benzothiazol-2-yl)carbonyl]-4-guanidinobutylcarbamoyl]ethyl](S)-2-[(2S)-2-acetylamino-3-methylvalerylamino]glutaramide]",10.8
8,"CCC(C)[C@H](NC(C)=O)C(=O)N[C@@H](CCC(N)=O)C(=O)N[C@H](C(=O)N[C@H](CCCNC(=N)N)C(=O)c1nc2ccccc2s1)C(C)C (stereo partly drawn) [MM3180-1, N-[(S)-2-methyl-1-[N-(R)-1-[(1,3-benzothiazol-2-yl)carbonyl]-4-guanidinobutylcarbamoyl]propyl](S)-2-[(2S)-2-acetylamino-3-methylvalerylamino]glutaramide]",5.3
9,"CCC(C)[C@H](NC(C)=O)C(=O)N[C@@H](CCC(N)=O)C(=O)N[C@H](C(=O)N[C@@H](CCCNC(=N)N)C(=O)c1nc2ccccc2s1)C(C)C (stereo partly drawn) [MM3180-2, N-[(S)-2-methyl-1-[N-(S)-1-[(1,3-benzothiazol-2-yl)carbonyl]-4-guanidinobutylcarbamoyl]propyl](S)-2-[(2S)-2-acetylamino-3-methylvalerylamino]glutaramide]",12
10,"CCC(C)[C@H](NC(C)=O)C(=O)N[C@@H](CCC(N)=O)C(=O)N[C@H](C(=O)N[C@@H](CCCNC(=N)N)C(=O)c1nc2ccccc2s1)C(C)O (stereo partly drawn) [MM3186, N-[(1S)-2-hydroxy-1-[N-(S)-1-[(1,3-benzothiazol-2-yl)carbonyl]-4-guanidinobutylcarbamoyl]propyl](S)-2-[(2S)-2-acetylamino-3-methylvalerylamino]glutaramide]",18.5
11,"CCC(C)[C@H](NC(C)=O)C(=O)N[C@@H](CCC(N)=O)C(=O)N[C@@H](Cc1c[nH]c2ccccc12)C(=O)N[C@@H](CCCNC(=N)N)C(=O)c1nc2ccccc2s1 (stereo partly drawn) [MM3187, N-[(S)-2-(3-indolyl)-1-[N-(S)-1-[(1,3-benzothiazol-2-yl)carbonyl]-4-guanidinobutylcarbamoyl]ethyl](S)-2-[(2S)-2-acetylamino-3-methylvalerylamino]glutaramide]",22
12,"CC(=O)N1CCC[C@H]1C(=O)N[C@@H](CO)C(=O)N[C@@H](CCCCN)C(=O)N[C@@H](CCCNC(=N)N)C(=O)c1nc2ccccc2s1 [MM3194A, N-[(S)-2-hydroxy-1-[N-(S)-5-amino-1-[N-(S)-1-[(1,3-benzothiazol-2-yl)carbonyl]-4-guanidinobutylcarbamoyl]pentylcarbamoy1]ethyl]-(S)-1-acetyl-2-pyrrolidinecarboxamide]",613
13,"CCC(C)[C@H](NC(C)=O)C(=O)N[C@@H](CO)C(=O)N[C@@H](Cc1ccccc1)C(=O)N[C@@H](CCCNC(=N)N)C(=O)c1nc2ccccc2s1 (stereo partly drawn) [MM4009-2, N-[(S)-2-hydroxy-1-[N-(S)-1-[N-(S)-1-[(1,3-benzothiazol-2-yl)carbonyl]-4-guanidinobutylcarbamoyl]-2-phenylethylcarbamoyl]ethyl] (2S)-2-acetylamino-3-methylvaleramide]",40.3
14,"CCC(C)[C@H](NC(C)=O)C(=O)N[C@@H](CCSC)C(=O)N[C@@H](Cc1ccccc1)C(=O)N[C@H](CCCNC(=N)N)C(=O)c1nc2ccccc2s1 (stereo partly drawn) [MM4027-1, N-[(S)-3-(methylthio)-1-[N-(S)-1-[N-(R)-1-[(1,3-benzothiazol-2-yl)carbonyl]-4-guanidinobutylcarbamoyl]-2-phenylethylcarbamoyl]propyl](2S)-2-acetylamino-3-methylvaleramide]",92.3
15,"CCC(C)[C@H](NC(C)=O)C(=O)N[C@H](C(=O)N[C@@H](Cc1ccccc1)C(=O)N[C@@H](CCCNC(=N)N)C(=O)c1nc2ccccc2s1)C(C)O (stereo partly drawn) [MM4028-2, N-[(1S)-2-hydroxy-1-[N-(S)-1-[N-(S)-1-[(1,3-benzothiazol-2-yl)carbonyl]-4-guanidinobutylcarbamoyl]-2-phenylethylcarbamoyl]propyl](2S)-2-acetylamino-3-methylvaleramide]",103
16,"CCC(C)[C@H](NC(C)=O)C(=O)N[C@@H](CCC(=O)O)C(=O)N[C@@H](Cc1ccccc1)C(=O)N[C@@H](CCCNC(=N)N)C(=O)c1nc2ccccc2s1 (stereo partly drawn) [MM4037-2, (S)-4-[(2S)-2-acetylamino-3-methylvalerylamino]-4-[N-(S)-1-[N-(S)-1-[(1,3-benzothiazol-2-yl)carbonyl]-4-guanidinobutylcarbamoyl]-2-phenylethylcarbamoyl]butyric acid]",23.9
17,"CCC(C)[C@H](NC(C)=O)C(=O)N[C@H](Cc1cc2ccccc2[nH]1)C(=O)N[C@@H](Cc1ccccc1)C(=O)N[C@@H](CCCNC(=N)N)C(=O)c1nc2ccccc2s1 (stereo partly drawn) [MM4038, N-[(R)-2-(2-indolyl)-1-[N-(S)-1-[N-(S)-1-[(1,3-benzothiazol-2-yl)carbonyl]-4-guanidinobutylcarbamoyl]-2-phenylethylcarbamoy1]ethyl](2S)-2-acetylamino-3-methylvaleramide]",226
18,"N=C(N)NCCC[C@H](NC(=O)[C@H](Cc1ccccc1)NC(=O)[C@H](N)Cc1c[nH]c2ccccc12)C(=O)c1nc2ccccc2s1 [PK-1-18A1, N-[(S)-1-[(1,3-benzothiazol-2-yl)carbonyl]-4-guanidinobutyl](S)-2-[(R)-2-amino-3-(3-indolyl)propionylamino]-3-phenylpropionamide]",356
19,"N=C(N)NCCC[C@H](NC(=O)[C@H](Cc1ccccc1)NC(=O)[C@H](N)Cc1c[nH]c2ccccc12)C(=O)c1nc2ccc(C(=O)O)cc2s1 [PK-1-45A1, 2-[(S)-2-[(S)-2-[(R)-2-amino-3-(3-indolyl)propionylamino]-3-phenylpropionylamino]-5-guanidinovaleryl]-1,3-benzothiazole-6-carboxylic acid]",105
20,"CC(=O)N[C@H](Cc1c[nH]c2ccccc12)C(=O)N[C@@H](Cc1ccccc1)C(=O)N[C@@H](CCCNC(=N)N)C(=O)c1nc2ccccc2s1 [PK-1-89A1, N-[(S)-1-[(1,3-benzothiazol-2-yl)carbonyl]-4-guanidinobutyl](S)-2-[(R)-2-acetylamino-3-(3-indolyl)propionylamino]-3-phenylpropionamide]",140
21,"CC(=O)N[C@H](Cc1c[nH]c2ccccc12)C(=O)N[C@@H](Cc1ccccc1)C(=O)N[C@@H](CCCNC(=N)N)C(=O)c1nc2ccc(C(=O)O)cc2s1 [PK-1-93, 2-[(S)-2-[(S)-2-[(R)-2-acetylamino-3-(3-indolyl)propionylamino]-3-phenylpropionylamino]-5-guanidinovaleryl]-1,3-benzothiazole-6-carboxylic acid]",141
22,"CC(=O)N[C@@H](Cc1c[nH]c2ccccc12)C(=O)N[C@@H](Cc1ccccc1)C(=O)N[C@@H](CCCNC(=N)N)C(=O)c1nc2ccccc2s1 [PK-1-102A1, N-[(S)-1-[(1,3-benzothiazol-2-yl)carbonyl]-4-guanidinobutyl](S)-2-[(S)-2-acetylamino-3-(3-indolyl)propionylamino]-3-phenylpropionamide]",1380
23,"CC(=O)N[C@@H](Cc1c[nH]c2ccccc12)C(=O)N[C@@H](Cc1ccccc1)C(=O)N[C@@H](CCCNC(=N)N)C(=O)c1nc2ccc(C(=O)O)cc2s1 [PK-1-103, 2-[(S)-2-[(S)-2-[(S)-2-acetylamino-3-(3-indolyl)propionylamino]-3-phenylpropionylamino]-5-guanidinovaleryl]-1,3-benzothiazole-6-carboxylic acid]",116
24,"CC(=O)N[C@@H](Cc1c[nH]c2ccccc12)C(=O)N[C@@H](CC(C)C)C(=O)N[C@@H](CCCNC(=N)N)C(=O)c1nc2ccc(C(=O)O)cc2s1 [PK-1-105, 2-[(S)-2-[(S)-2-[(S)-2-acetylamino-3-(3-indolyl)propionylamino]-4-methylvalerylamino]-5-guanidinovaleryl]-1,3-benzothiazole-6-carboxylic acid]",721
